According to the NIST ThermoML archive (doi:10.1021/je4004806):
± gives the expanded uncertainty stated by the source.

Test: xn = mol fraction of the nth substance listed
Details: 101 kPa, Liquid; for viscosity: Capillary tube (Ostwald / Ubbelohde) method; for mass density: Vibrating tube method

`CCCCCCCC` [octane] + CCCO gave a viscosity (293.15 K, x1 = 0.0997) of 1.692 ± 0.021 mPa·s, a viscosity (293.15 K, x1 = 0.1999) of 1.356 ± 0.016 mPa·s and a viscosity (293.15 K, x1 = 0.3) of 1.092 ± 0.013 mPa·s. For the same compound, the viscosity (293.15 K, x1 = 0.3997) was 0.934 ± 0.011 mPa·s, the viscosity (293.15 K, x1 = 0.4993) was 0.798 ± 0.01 mPa·s and the viscosity (293.15 K, x1 = 0.602) was 0.703 ± 0.01 mPa·s. The viscosity (293.15 K, x1 = 0.6991) was 0.632 ± 0.009 mPa·s, the viscosity (293.15 K, x1 = 0.7994) was 0.587 ± 0.009 mPa·s and the viscosity (293.15 K, x1 = 0.9) was 0.556 ± 0.009 mPa·s. It also gave a viscosity (293.15 K, x1 = 1) of 0.545 ± 0.009 mPa·s, a mass density (293.15 K, x1 = 0.0997) of 782.97 ± 0.76 kg/m3 and a mass density (293.15 K, x1 = 0.1999) of 766.37 ± 0.62 kg/m3. For the same compound, the mass density (293.15 K, x1 = 0.3) was 752.87 ± 0.51 kg/m3, the mass density (293.15 K, x1 = 0.3997) was 741.8 ± 0.43 kg/m3 and the mass density (293.15 K, x1 = 0.4993) was 732.43 ± 0.38 kg/m3. The mass density (293.15 K, x1 = 0.602) was 724.19 ± 0.33 kg/m3, the mass density (293.15 K, x1 = 0.6991) was 717.48 ± 0.3 kg/m3 and the mass density (293.15 K, x1 = 0.7994) was 711.55 ± 0.26 kg/m3. The mass density (293.15 K, x1 = 0.9) was 706.48 ± 0.23 kg/m3, the mass density (293.15 K, x1 = 1) was 702.54 ± 0.15 kg/m3 and the viscosity (298.15 K, x1 = 0.0997) was 1.508 ± 0.019 mPa·s. The viscosity (298.15 K, x1 = 0.1999) was 1.216 ± 0.015 mPa·s, the viscosity (298.15 K, x1 = 0.3) was 0.991 ± 0.012 mPa·s and the viscosity (298.15 K, x1 = 0.3997) was 0.854 ± 0.011 mPa·s. It also gave a viscosity (298.15 K, x1 = 0.4993) of 0.734 ± 0.01 mPa·s, a viscosity (298.15 K, x1 = 0.602) of 0.65 ± 0.009 mPa·s and a viscosity (298.15 K, x1 = 0.6991) of 0.589 ± 0.009 mPa·s. For the same compound, the viscosity (298.15 K, x1 = 0.7994) was 0.55 ± 0.009 mPa·s, the viscosity (298.15 K, x1 = 0.9) was 0.523 ± 0.009 mPa·s and the viscosity (298.15 K, x1 = 1) was 0.513 ± 0.009 mPa·s. For the same compound, the mass density (298.15 K, x1 = 0.0997) was 778.9 ± 0.76 kg/m3, the mass density (298.15 K, x1 = 0.1999) was 762.25 ± 0.62 kg/m3 and the mass density (298.15 K, x1 = 0.3) was 748.72 ± 0.51 kg/m3. The mass density (298.15 K, x1 = 0.3997) was 737.62 ± 0.43 kg/m3, the mass density (298.15 K, x1 = 0.4993) was 728.24 ± 0.38 kg/m3 and the mass density (298.15 K, x1 = 0.602) was 719.99 ± 0.33 kg/m3. It also gave a mass density (298.15 K, x1 = 0.6991) of 713.3 ± 0.3 kg/m3, a mass density (298.15 K, x1 = 0.7994) of 707.39 ± 0.26 kg/m3 and a mass density (298.15 K, x1 = 0.9) of 702.35 ± 0.23 kg/m3. It also gave a mass density (298.15 K, x1 = 1) of 698.49 ± 0.15 kg/m3, a viscosity (303.15 K, x1 = 0.0997) of 1.352 ± 0.017 mPa·s and a viscosity (303.15 K, x1 = 0.1999) of 1.097 ± 0.014 mPa·s. It also gave a viscosity (303.15 K, x1 = 0.3) of 0.899 ± 0.012 mPa·s, a viscosity (303.15 K, x1 = 0.3997) of 0.777 ± 0.01 mPa·s and a viscosity (303.15 K, x1 = 0.4993) of 0.675 ± 0.01 mPa·s. The viscosity (303.15 K, x1 = 0.602) was 0.603 ± 0.009 mPa·s, the viscosity (303.15 K, x1 = 0.6991) was 0.55 ± 0.009 mPa·s and the viscosity (303.15 K, x1 = 0.7994) was 0.515 ± 0.009 mPa·s. For the same compound, the viscosity (303.15 K, x1 = 0.9) was 0.491 ± 0.009 mPa·s, the viscosity (303.15 K, x1 = 1) was 0.485 ± 0.009 mPa·s and the mass density (303.15 K, x1 = 0.0997) was 774.8 ± 0.77 kg/m3. The mass density (303.15 K, x1 = 0.1999) was 758.1 ± 0.62 kg/m3, the mass density (303.15 K, x1 = 0.3) was 744.53 ± 0.51 kg/m3 and the mass density (303.15 K, x1 = 0.3997) was 733.4 ± 0.44 kg/m3. It also gave a mass density (303.15 K, x1 = 0.4993) of 724.01 ± 0.38 kg/m3, a mass density (303.15 K, x1 = 0.602) of 715.77 ± 0.33 kg/m3 and a mass density (303.15 K, x1 = 0.6991) of 709.09 ± 0.3 kg/m3. For the same compound, the mass density (303.15 K, x1 = 0.7994) was 703.2 ± 0.26 kg/m3, the mass density (303.15 K, x1 = 0.9) was 698.19 ± 0.23 kg/m3 and the mass density (303.15 K, x1 = 1) was 694.44 ± 0.16 kg/m3. The viscosity (308.15 K, x1 = 0.0997) was 1.211 ± 0.015 mPa·s, the viscosity (308.15 K, x1 = 0.1999) was 0.992 ± 0.013 mPa·s and the viscosity (308.15 K, x1 = 0.3) was 0.817 ± 0.011 mPa·s. It also gave a viscosity (308.15 K, x1 = 0.3997) of 0.712 ± 0.01 mPa·s, a viscosity (308.15 K, x1 = 0.4993) of 0.623 ± 0.009 mPa·s and a viscosity (308.15 K, x1 = 0.602) of 0.56 ± 0.009 mPa·s. For the same compound, the viscosity (308.15 K, x1 = 0.6991) was 0.514 ± 0.009 mPa·s, the viscosity (308.15 K, x1 = 0.7994) was 0.484 ± 0.009 mPa·s and the viscosity (308.15 K, x1 = 0.9) was 0.463 ± 0.009 mPa·s. It also gave a viscosity (308.15 K, x1 = 1) of 0.459 ± 0.009 mPa·s, a mass density (308.15 K, x1 = 0.0997) of 770.67 ± 0.77 kg/m3 and a mass density (308.15 K, x1 = 0.1999) of 753.91 ± 0.62 kg/m3. For the same compound, the mass density (308.15 K, x1 = 0.3) was 740.3 ± 0.52 kg/m3, the mass density (308.15 K, x1 = 0.3997) was 729.15 ± 0.44 kg/m3 and the mass density (308.15 K, x1 = 0.4993) was 719.75 ± 0.38 kg/m3. For the same compound, the mass density (308.15 K, x1 = 0.602) was 711.51 ± 0.33 kg/m3, the mass density (308.15 K, x1 = 0.6991) was 704.85 ± 0.3 kg/m3 and the mass density (308.15 K, x1 = 0.7994) was 698.98 ± 0.26 kg/m3. It also gave a mass density (308.15 K, x1 = 0.9) of 694.02 ± 0.23 kg/m3, a mass density (308.15 K, x1 = 1) of 690.37 ± 0.16 kg/m3 and a viscosity (313.15 K, x1 = 0.0997) of 1.09 ± 0.014 mPa·s. It also gave a viscosity (313.15 K, x1 = 0.1999) of 0.898 ± 0.012 mPa·s, a viscosity (313.15 K, x1 = 0.3) of 0.745 ± 0.01 mPa·s and a viscosity (313.15 K, x1 = 0.3997) of 0.653 ± 0.01 mPa·s. For the same compound, the viscosity (313.15 K, x1 = 0.4993) was 0.576 ± 0.009 mPa·s, the viscosity (313.15 K, x1 = 0.602) was 0.52 ± 0.009 mPa·s and the viscosity (313.15 K, x1 = 0.6991) was 0.481 ± 0.009 mPa·s. It also gave a viscosity (313.15 K, x1 = 0.7994) of 0.455 ± 0.009 mPa·s, a viscosity (313.15 K, x1 = 0.9) of 0.436 ± 0.009 mPa·s and a viscosity (313.15 K, x1 = 1) of 0.433 ± 0.009 mPa·s. For the same compound, the mass density (313.15 K, x1 = 0.0997) was 766.5 ± 0.77 kg/m3, the mass density (313.15 K, x1 = 0.1999) was 749.69 ± 0.62 kg/m3 and the mass density (313.15 K, x1 = 0.3) was 736.04 ± 0.52 kg/m3. The mass density (313.15 K, x1 = 0.3997) was 724.85 ± 0.44 kg/m3, the mass density (313.15 K, x1 = 0.4993) was 715.44 ± 0.38 kg/m3 and the mass density (313.15 K, x1 = 0.602) was 707.21 ± 0.33 kg/m3. It also gave a mass density (313.15 K, x1 = 0.6991) of 700.57 ± 0.3 kg/m3, a mass density (313.15 K, x1 = 0.7994) of 694.73 ± 0.26 kg/m3 and a mass density (313.15 K, x1 = 0.9) of 689.81 ± 0.23 kg/m3. It also gave a mass density (313.15 K, x1 = 1) of 686.29 ± 0.16 kg/m3, a viscosity (318.15 K, x1 = 0.0997) of 0.984 ± 0.013 mPa·s and a viscosity (318.15 K, x1 = 0.1999) of 0.817 ± 0.011 mPa·s. It also gave a viscosity (318.15 K, x1 = 0.3) of 0.68 ± 0.01 mPa·s, a viscosity (318.15 K, x1 = 0.3997) of 0.605 ± 0.009 mPa·s and a viscosity (318.15 K, x1 = 0.4993) of 0.534 ± 0.009 mPa·s. The viscosity (318.15 K, x1 = 0.602) was 0.485 ± 0.009 mPa·s, the viscosity (318.15 K, x1 = 0.6991) was 0.451 ± 0.009 mPa·s and the viscosity (318.15 K, x1 = 0.7994) was 0.427 ± 0.009 mPa·s. It also gave a viscosity (318.15 K, x1 = 0.9) of 0.412 ± 0.008 mPa·s, a viscosity (318.15 K, x1 = 1) of 0.412 ± 0.008 mPa·s and a mass density (318.15 K, x1 = 0.0997) of 762.28 ± 0.77 kg/m3. For the same compound, the mass density (318.15 K, x1 = 0.1999) was 745.41 ± 0.63 kg/m3, the mass density (318.15 K, x1 = 0.3) was 731.72 ± 0.52 kg/m3 and the mass density (318.15 K, x1 = 0.3997) was 720.51 ± 0.44 kg/m3. It also gave a mass density (318.15 K, x1 = 0.4993) of 711.09 ± 0.38 kg/m3, a mass density (318.15 K, x1 = 0.602) of 702.87 ± 0.33 kg/m3 and a mass density (318.15 K, x1 = 0.6991) of 696.25 ± 0.3 kg/m3. It also gave a mass density (318.15 K, x1 = 0.7994) of 690.45 ± 0.26 kg/m3, a mass density (318.15 K, x1 = 0.9) of 685.58 ± 0.23 kg/m3 and a mass density (318.15 K, x1 = 1) of 682.19 ± 0.16 kg/m3. For the same compound, the viscosity (323.15 K, x1 = 0.0997) was 0.89 ± 0.012 mPa·s, the viscosity (323.15 K, x1 = 0.1999) was 0.742 ± 0.011 mPa·s and the viscosity (323.15 K, x1 = 0.3) was 0.623 ± 0.01 mPa·s. It also gave a viscosity (323.15 K, x1 = 0.3997) of 0.554 ± 0.009 mPa·s, a viscosity (323.15 K, x1 = 0.4993) of 0.496 ± 0.009 mPa·s and a viscosity (323.15 K, x1 = 0.602) of 0.452 ± 0.009 mPa·s. For the same compound, the viscosity (323.15 K, x1 = 0.6991) was 0.423 ± 0.009 mPa·s, the viscosity (323.15 K, x1 = 0.7994) was 0.403 ± 0.008 mPa·s and the viscosity (323.15 K, x1 = 0.9) was 0.389 ± 0.008 mPa·s. The viscosity (323.15 K, x1 = 1) was 0.392 ± 0.008 mPa·s, the mass density (323.15 K, x1 = 0.0997) was 758.02 ± 0.78 kg/m3 and the mass density (323.15 K, x1 = 0.1999) was 741.08 ± 0.63 kg/m3. The mass density (323.15 K, x1 = 0.3) was 727.35 ± 0.52 kg/m3, the mass density (323.15 K, x1 = 0.3997) was 716.12 ± 0.44 kg/m3 and the mass density (323.15 K, x1 = 0.4993) was 706.7 ± 0.38 kg/m3. It also gave a mass density (323.15 K, x1 = 0.602) of 698.49 ± 0.33 kg/m3, a mass density (323.15 K, x1 = 0.6991) of 691.9 ± 0.3 kg/m3 and a mass density (323.15 K, x1 = 0.7994) of 686.13 ± 0.26 kg/m3. The mass density (323.15 K, x1 = 0.9) was 681.32 ± 0.23 kg/m3 and the mass density (323.15 K, x1 = 1) was 678.08 ± 0.16 kg/m3.
